Measurements as given in patent US11845760B2, “PRMT5 inhibitors” (AMGEN INC., priority 2020, dated 2023).
pIC50: −log10 of the molar value. Read-outs that look alike come from different tables or passages of the source.

Assays:
HCT116 WT cells = test: HCT116 WT cell line proliferation (CellTiter-Glo cell viability, 6 days); format: cell-based; settings: HCT116 WT (parent) cells, 6 days of treatment, CellTiter-Glo cell viability, read-out: HCT-116 WT IC50
Method in brief: (§1)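 Isogenic HCT116 pair (parent and MTAP double-allele knockout) in RPMI 1640 + 10% FBS, exposed 6 days to compound: 8–9-point 1:3 dilutions from 1 or 10 μM top, or 22-point 1:2 dilutions from 10 or 50 μM top. CellTiter-Glo luminescence; IC50 from sigmoidal fit (Hill −1) or 4-parameter logistic.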

HCT116 MTAP null cells = test: HCT116 MTAP null cell line proliferation (CellTiter-Glo cell viability, 6 days); format: cell-based; settings: HCT116 MTAP null cells, 6 days of treatment, CellTiter-Glo cell viability, read-out: HCT-116 MTAP null IC50
Method in brief: as §1

C[C@H]1COC[C@@H](c2ccc(OC(F)(F)F)cn2)N1C(=O)c1cc2c3c(c(N)nc2cc1Cl)COC3 (racemic) [Example 375, (4-amino-7-chloro-1,3-dihydrofuro[3,4-c]quinolin-8-yl)((3R,5S)-3-methyl-5-(5-(trifluoromethoxy)-2-pyridinyl)-4-morpholinyl)methanone and (4-amino-7-chloro-1,3-dihydrofuro[3,4-c]quinolin-8-yl)((3S,5R)-3-methyl-5-(5-(trifluoromethoxy)-2-pyridinyl)-4-morpholinyl)methanone]
pIC50 (HCT116 WT cells; Homo sapiens, HCT-116, 144 h): 7.24 | pIC50 (HCT116 MTAP null cells; HCT116-MTAP null, 144 h): 8.52

C[C@H]1COC[C@@H](c2ccc(OC(F)(F)F)cn2)N1C(=O)c1ccc2nc(N)c3c(c2c1)COC3 (racemic) [Example 376, (4-amino-1,3-dihydrofuro[3,4-c]quinolin-8-yl)((3R,5S)-3-methyl-5-(5-(trifluoromethoxy)-2-pyridinyl)-4-morpholinyl)methanone and (4-amino-1,3-dihydrofuro[3,4-c]quinolin-8-yl)((3S,5R)-3-methyl-5-(5-(trifluoromethoxy)-2-pyridinyl)-4-morpholinyl)methanone]
pIC50 (HCT116 WT cells; Homo sapiens, HCT-116, 144 h): 5.91 | pIC50 (HCT116 MTAP null cells; HCT116-MTAP null, 144 h): 7.54

C[C@H]1OCc2c1c(N)nc1ccc(C(=O)N3[C@@H](C)COC[C@H]3c3ccc(OC(F)(F)F)cn3)cc21 (racemic) [Example 377, ((3R)-4-amino-3-methyl-1,3-dihydrofuro[3,4-c]quinolin-8-yl)((3R,5S)-3-methyl-5-(5-(trifluoromethoxy)-2-pyridinyl)-4-morpholinyl)methanone and ((3R)-4-amino-3-methyl-1,3-dihydrofuro[3,4-c]quinolin-8-yl)((3S,5R)-3-methyl-5-(5-(trifluoromethoxy)-2-pyridinyl)-4-morpholinyl)methanone]
pIC50 (HCT116 WT cells; Homo sapiens, HCT-116, 144 h): 5.96 | pIC50 (HCT116 MTAP null cells; HCT116-MTAP null, 144 h): 7.43

C[C@H]1COC[C@@H](c2ccc(OC(F)(F)F)cn2)N1C(=O)c1cc2c3c(c(N)nc2cc1F)COC3 (racemic) [Example 378, (4-amino-7-fluoro-1,3-dihydrofuro[3,4-c]quinolin-8-yl)((3R,5S)-3-methyl-5-(5-(trifluoromethoxy)-2-pyridinyl)-4-morpholinyl)methanone and (4-amino-7-fluoro-1,3-dihydrofuro[3,4-c]quinolin-8-yl)((3S,5R)-3-methyl-5-(5-(trifluoromethoxy)-2-pyridinyl)-4-morpholinyl)methanone]
pIC50 (HCT116 WT cells; Homo sapiens, HCT-116, 144 h): 6.72 | pIC50 (HCT116 MTAP null cells; HCT116-MTAP null, 144 h): 7.82

C[C@@H]1OCc2c1c(N)nc1cnc(C(=O)N3[C@H](C)COC[C@@H]3c3ccc(OC(F)(F)F)cn3)cc21 (racemic) [Example 379, ((3S)-4-amino-3-methyl-1,3-dihydrofuro[3,4-c][1,7]naphthyridin-8-yl)((3R,5S)-3-methyl-5-(5-(trifluoromethoxy)-2-pyridinyl)-4-morpholinyl)methanone and ((3S)-4-amino-3-methyl-1,3-dihydrofuro[3,4-c][1,7]naphthyridin-8-yl)((3S,5R)-3-methyl-5-(5-(trifluoromethoxy)-2-pyridinyl)-4-morpholinyl)methanone]
pIC50 (HCT116 WT cells; Homo sapiens, HCT-116, 144 h): < 5.00 | pIC50 (HCT116 MTAP null cells; HCT116-MTAP null, 144 h): 6.03

C[C@@H]1COC[C@H](c2ccc(OC(F)(F)F)cn2)N1C(=O)c1cc2c3c(c(N)nc2cn1)[C@@H](C)OC3 (racemic) [Example 380, ((3R)-4-amino-3-methyl-1,3-dihydrofuro[3,4-c][1,7]naphthyridin-8-yl)((3R,5S)-3-methyl-5-(5-(trifluoromethoxy)-2-pyridinyl)-4-morpholinyl)methanone and ((3R)-4-amino-3-methyl-1,3-dihydrofuro[3,4-c][1,7]naphthyridin-8-yl)((3S,5R)-3-methyl-5-(5-(trifluoromethoxy)-2-pyridinyl)-4-morpholinyl)methanone]
pIC50 (HCT116 WT cells; Homo sapiens, HCT-116, 144 h): 6.04 | pIC50 (HCT116 MTAP null cells; HCT116-MTAP null, 144 h): 7.32

C[C@@H]1COC[C@H](c2ccc(OC(F)F)nn2)N1C(=O)c1cc2c3c(c(N)nc2cn1)COC3 (racemic) [Example 381, (4-amino-1,3-dihydrofuro[3,4-c][1,7]naphthyridin-8-yl)((3R,5S)-3-(6-(difluoromethoxy)-3-pyridazinyl)-5-methyl-4-morpholinyl)methanone and (4-amino-1,3-dihydrofuro[3,4-c][1,7]naphthyridin-8-yl)((3S,5R)-3-(6-(difluoromethoxy)-3-pyridazinyl)-5-methyl-4-morpholinyl)methanone]
pIC50 (HCT116 WT cells): 5.59 | pIC50 (HCT116 MTAP null cells): 7.08

Nc1nc2cnc(C(=O)N3CCOCC3c3ccc(OC(F)F)c(F)c3)cc2c2c1COC2 (racemic) [Example 383, (4-amino-1,3-dihydrofuro[3,4-c][1,7]naphthyridin-8-yl)((3R)-3-(4-(difluoromethoxy)-3-fluorophenyl)-4-morpholinyl)methanone and (4-amino-1,3-dihydrofuro[3,4-c][1,7]naphthyridin-8-yl)((3S)-3-(4-(difluoromethoxy)-3-fluorophenyl)-4-morpholinyl)methanone]
pIC50 (HCT116 WT cells): 4.86 | pIC50 (HCT116 MTAP null cells): 6.36

Nc1nc2cc(Cl)c(C(=O)N3CCOCC3c3ccc(OC(F)F)nc3)cc2c2c1COC2 (racemic) [Example 384, (4-amino-7-chloro-1,3-dihydrofuro[3,4-c]quinolin-8-yl)((3R)-3-(6-(difluoromethoxy)-3-pyridinyl)-4-morpholinyl)methanone and (4-amino-7-chloro-1,3-dihydrofuro[3,4-c]quinolin-8-yl)((3S)-3-(6-(difluoromethoxy)-3-pyridinyl)-4-morpholinyl)methanone]
pIC50 (HCT116 WT cells): 5.77 | pIC50 (HCT116 MTAP null cells): 7.64

Nc1nc2cc(F)c(C(=O)N3CCOCC3c3ccc(OC(F)F)nc3)cc2c2c1COC2 (racemic) [Example 385, (4-amino-7-fluoro-1,3-dihydrofuro[3,4-c]quinolin-8-yl)((3R)-3-(6-(difluoromethoxy)-3-pyridinyl)-4-morpholinyl)methanone and (4-amino-7-fluoro-1,3-dihydrofuro[3,4-c]quinolin-8-yl)((3S)-3-(6-(difluoromethoxy)-3-pyridinyl)-4-morpholinyl)methanone]
pIC50 (HCT116 WT cells): 5.23 | pIC50 (HCT116 MTAP null cells): 6.82

Nc1nc2cnc(C(=O)N3CCOCC3c3ccc(OC(F)(F)F)cc3F)cc2c2c1COC2 (racemic) [Example 386, (4-amino-1,3-dihydrofuro[3,4-c][1,7]naphthyridin-8-yl)((3R)-3-(2-fluoro-4-(trifluoromethoxy)phenyl)-4-morpholinyl)methanone and (4-amino-1,3-dihydrofuro[3,4-c][1,7]naphthyridin-8-yl)((3S)-3-(2-fluoro-4-(trifluoromethoxy)phenyl)-4-morpholinyl)methanone]
pIC50 (HCT116 WT cells): 5.30 | pIC50 (HCT116 MTAP null cells): 6.46

Nc1nc2cnc(C(=O)N3CCOCC3c3ccc(C(F)(F)F)cc3F)cc2c2c1COC2 (racemic) [Example 387, (4-amino-1,3-dihydrofuro[3,4-c][1,7]naphthyridin-8-yl)((3R)-3-(2-fluoro-4-(trifluoromethyl)phenyl)-4-morpholinyl)methanone and (4-amino-1,3-dihydrofuro[3,4-c][1,7]naphthyridin-8-yl)((3S)-3-(2-fluoro-4-(trifluoromethyl)phenyl)-4-morpholinyl)methanone]
pIC50 (HCT116 WT cells): 5.14 | pIC50 (HCT116 MTAP null cells): 6.71

N#Cc1ccc(C2COCCN2C(=O)c2cc3c4c(c(N)nc3cn2)COC4)cc1 (racemic) [Example 388, 4-((3R)-4-((4-amino-1,3-dihydrofuro[3,4-c][1,7]naphthyridin-8-yl)carbonyl)-3-morpholinyl)benzonitrile and 4-((3S)-4-((4-amino-1,3-dihydrofuro[3,4-c][1,7]naphthyridin-8-yl)carbonyl)-3-morpholinyl)benzonitrile]
pIC50 (HCT116 WT cells; Homo sapiens, HCT-116, 144 h): 4.48 | pIC50 (HCT116 MTAP null cells; HCT116-MTAP null, 144 h): 6.08

C[C@H]1COC[C@@H](c2ccc(C#N)cc2)N1C(=O)c1cc2c3c(c(N)nc2cn1)COC3 (racemic) [Example 389, 4-((3R,5S)-4-((4-amino-1,3-dihydrofuro[3,4-c][1,7]naphthyridin-8-yl)carbonyl)-5-methyl-3-morpholinyl)benzonitrile and 4-((3S,5R)-4-((4-amino-1,3-dihydrofuro[3,4-c][1,7]naphthyridin-8-yl)carbonyl)-5-methyl-3-morpholinyl)benzonitrile]
pIC50 (HCT116 WT cells; Homo sapiens, HCT-116, 144 h): 5.79 | pIC50 (HCT116 MTAP null cells; HCT116-MTAP null, 144 h): 7.28

C[C@@H]1COC[C@H](c2ccc(OC(F)F)c(F)c2)N1C(=O)c1cc2c3c(c(N)nc2cn1)COC3 (racemic) [Example 390, (4-amino-1,3-dihydrofuro[3,4-c][1,7]naphthyridin-8-yl)((3R,5S)-3-(4-(difluoromethoxy)-3-fluorophenyl)-5-methyl-4-morpholinyl)methanone and (4-amino-1,3-dihydrofuro[3,4-c][1,7]naphthyridin-8-yl)((3S,5R)-3-(4-(difluoromethoxy)-3-fluorophenyl)-5-methyl-4-morpholinyl)methanone]
pIC50 (HCT116 WT cells): 5.20 | pIC50 (HCT116 MTAP null cells): 6.78

CCOc1ccc(C2COCCN2C(=O)c2cc3c4c(c(N)nc3cc2Cl)COC4)nn1 (racemic) [Example 391, (4-amino-7-chloro-1,3-dihydrofuro[3,4-c]quinolin-8-yl)((3R)-3-(6-ethoxy-3-pyridazinyl)-4-morpholinyl)methanone and (4-amino-7-chloro-1,3-dihydrofuro[3,4-c]quinolin-8-yl)((3S)-3-(6-ethoxy-3-pyridazinyl)-4-morpholinyl)methanone]
pIC50 (HCT116 WT cells; Homo sapiens, HCT-116, 144 h): 5.47 | pIC50 (HCT116 MTAP null cells; HCT116-MTAP null, 144 h): 7.14
